In patent US6696069B2, “Skin care cosmetic compositions containing phosphates and/or sulfates of branched alcohols and/or ethoxylates thereof” (Unilever Home & Personal Care USA, division of Conopco, Inc., priority 2000, dated 2004):
Values joined by “and” are separate entries in the source; they are usually repeats but may differ in a detail not shown here. Equal entries are not always repeated. Structures can show the parent of a compound that is named as a salt. Marks after values point to notes of the source that are not given here.

Columns and labels:
[1] = system: human sebocytes; assay: Inhibition of sebocyte lipogenesis (14C-acetate incorporation); type: cell-based; details: for lipogenesis inhibition (result in words): in combination with retinol, in comparison to either alone
[2] = system: Neonatal human dermal fibroblasts; assay: Production of procollagen I by fibroblasts (slot blot, densitometry); type: cell-based; details: for Average OD (optical density) Reading / Fold increase Over Control / % Increase (+) or % decrease (−−) over control: procollagen I; for collagen synthesis by fibroblasts (result in words): text summary of Tables 1 and 5; for % Increase (+) or % decrease (−−) over control: positive control, concentration not given
Protocol: This example measured production of procollagen I by fibroblasts in response to treatment with various straight chain and branched alcohols alone.
Procollagen I Staining Protocol for Slot Blot
Neonatal human dermal fibroblasts were purchased from Clonetics Corp., San Diego, Calif. All materials for cell culture were purchased from Life Technologies, NY (and used in passages 5-10). Cells were seeded at a density of approximately 10,000/well in the inner 48 wells of a 96-well plate in a medium containing DMEM (Dulbecco's Modified Eagle's Medium), high-glucose supplemented with 2 mM L-glutamine, 10% fetal bovine serum, and antibiotic and antimycotic solutions. Cells were then grown to confluence for 2 days. At confluence, the medium was removed and cells were washed with serum-free DMEM, and each well dosed with 200 μl of a solution of a test compound in serum-free DMEM. Each dosing was replicated in a total of six wells. […] After 24 hours, the test compound solution or the control solution was removed and cells redosed with 100 μl of a solution of a test compound in serum-free DMEM.
Nitrocellulose membrane and 3 sheets of filter paper were soaked in TRIS buffered saline (TBS, pH 7.3.). BioRad slot blot apparatus (BioRad Labs, CA) was set up with 3 sheets filter paper on bottom, membrane on top, and tightened. […] TBS was added per well. Vacuum was used to suck TBS through membrane. The test compound solution or control was vortexed, then 100 μl was loaded per well and gravity filtered. Procollagen from the test solution was bound to the membrane at this point in the procedure. Membrane was removed from the apparatus, excess cut off, and bottom right corner notched for orientation. The membrane was placed in blocking solution (5% milk powder in Dulbecco's phosphate buffered saline) overnight at 4° C., with shaking. The membrane was then incubated for 1.5 hrs at room temperature with 1.5 mL Rat Anti-Human Procollagen Amino-Terminal Ab (Chemicon MAB1912) in TBS with 0.1% BSA (Bovine Serum Albumin) (ratio of antibody to buffer/BSA was 1:100) in a sealed bag with shaking. The membrane was then removed; washed 3 times for 5 minutes in TBS/0.1% Tween. The membrane was then incubated for 1 hour at room temperature in 2 mL of Biotinylated Anti-Rat Peroxidase-Conjugated Ab (Vector Labs) in TBS with 0.1% BSA (ratio of antibody to buffer/BSA was 1:1000) in a sealed bag with shaking. The membrane was then stained using the following solution:
12.5 mg 3-amino 9-ethyl carbazole (Sigma)
3.125 (approximately) mL DMF (N,N-dimethylformamide, from Sigma)
The membrane was stained until color developed and the reaction stopped with 2 washes for 10 minutes in tap water. The blot was scanned on a Bio-Rad GS700 Image Analysis densitometer. Percent change from control was calculated from densitometer readings as follows: [(Reading for test compound−Reading for control)/Reading for control]*100. Control has a reading of 100%. Statistical significance (p value) was calculated using student's t-test.
TGF-B is a positive control, ensuring the integrity of the assay: transforming growth factor beta is known to increase procollagen I in fibroblasts.
This example measured production of procollagen I by fibroblasts in response to treatment with various test compounds.
The experiment was conducted as described in Example 1 above. Fold increase was calculated as a ratio of densitometer reading for cells treated with a test compound over control.

[3] = lipogenesis, 1 μM + 1 μM Retinol
[4] = lipogenesis, 1 μM + 10 μM Retinol
[5] = lipogenesis, 10 μM + 1 μM Retinol
[6] = lipogenesis, 10 μM + 10 μM Retinol

CC(C)CCCCCCCCCCOS(=O)(=O)O [Iso-tridecyl Sulfate, sodium salt]
activity at 33.1 µM ([1]; Homo sapiens, lipogenesis, 33.1 μM, alone, read-out: % of Control): 54.9% | activity at 165.5 µM ([1]; Homo sapiens, lipogenesis, 165.5 μM, alone, read-out: % of Control): 14% | activity at 331 µM ([1]; Homo sapiens, lipogenesis, 331 μM, alone, read-out: % of Control): 5.5%

O=S1(=O)OC(c2ccc(O)cc2)(c2ccc(O)cc2)c2ccccc21 [Phenol Red, reference compound]
activity at 28 µM ([1]; Homo sapiens, lipogenesis, 28 μM, alone, read-out: % of Control): 91.9% | activity at 280 µM ([1]; Homo sapiens, lipogenesis, 280 μM, alone, read-out: % of Control): 58.1% | % of Control ([1]; lipogenesis, 28 μM, alone): 92.0% and 79.3% and 84.0% | % of Control ([1]; lipogenesis, 280 μM, alone): 61.7* % and 70.6* %

CC1=C(/C=C/C(C)=C/C=C/C(C)=C/CO)C(C)(C)CCC1 [Retinol, reference compound]
activity at 1 µM ([1]; Homo sapiens, lipogenesis, 1 μM, alone, read-out: % of Control): 91.8% | activity at 10 µM ([1]; Homo sapiens, lipogenesis, 10 μM, alone, read-out: % of Control): 106% | % of Control ([1]; lipogenesis, 1 μM, alone): 97.4% and 93.2% and 91.5% | % of Control ([1]; lipogenesis, 10 μM, alone): 106.0% and 101.8%

Iso-tridecyl Phosphate
Average OD (optical density) Reading ([2]; Plate 2, 0.0001%): 2.170 | Fold increase Over Control ([2]; Plate 2, 0.0001%): 2.17 | Average OD (optical density) Reading ([2]; Plate 2, 0.001%): 1.460 | Fold increase Over Control ([2]; Plate 2, 0.001%): 1.460 | collagen synthesis by fibroblasts (result in words) [2]: increased collagen production | lipogenesis inhibition (result in words) [1]: enhanced inhibition of lipogenisis production | % of Control [1, 3]: 78.1* % | % of Control [1, 4]: 71.6* % | % of Control [1, 5]: 70.6* % | % of Control [1, 6]: 66.9* % | % of Control ([1]; lipogenesis, 100 μM + 1 μM Retinol): 74.1* % | % of Control ([1]; lipogenesis, 100 μM + 10 μM Retinol): 78.2%

Iso-tridecyl Phosphate (Disodium salt)
% of Control ([1]; lipogenesis, 1 μM, alone): 90.7% | % of Control ([1]; lipogenesis, 10 μM, alone): 88.4% | % of Control ([1]; lipogenesis, 100 μM, alone): 88.3%

Iso-tridecyl Sulfate
Average OD (optical density) Reading ([2]; Plate 1, 0.0001%): 1.000 | Fold increase Over Control ([2]; Plate 1, 0.0001%): 1.28 | Average OD (optical density) Reading ([2]; Plate 1, 0.001%): 1.223 | Fold increase Over Control ([2]; Plate 1, 0.001%): 1.56 | collagen synthesis by fibroblasts (result in words) [2]: increased collagen production | lipogenesis (result in words) ([1]; alone or as a salt, Table 2): reduced lipogenesis production | lipogenesis inhibition (result in words) [1]: improved lipogenesis inhibition | % of Control [1, 3]: 70.6* % | % of Control [1, 4]: 64.4* % | % of Control ([1]; lipogenesis, 1 μM, alone): 72.5* % | % of Control [1, 5]: 56.1* % | % of Control [1, 6]: 47.5* % | % of Control ([1]; lipogenesis, 10 μM, alone): 58.2* % | % of Control ([1]; lipogenesis, 35.6 μM, alone): 63.5% | % of Control ([1]; lipogenesis, 178 μM, alone): 18.1* % | % of Control ([1]; lipogenesis, 356 μM, alone): 7.4* %

TGF-B [reference compound]
% Increase (+) or % decrease (−−) over control ([2]; Experiment 1): +50* % | % Increase (+) or % decrease (−−) over control ([2]; Experiment 2): +140* % | Average OD (optical density) Reading ([2]; Plate 1, 0.001%): 1.348 | Fold increase Over Control ([2]; Plate 1, 0.001%): 1.72 | Average OD (optical density) Reading ([2]; Plate 2, 0.001%): 1.653 | Fold increase Over Control ([2]; Plate 2, 0.001%): 1.65
